Data published in the supplement of paper PMC4862054.

Experiments:
Settings in all cases: incubation time: 72 h
BT-474 [1] = test: normalised response (% of control), CellTiter-Glo; higher = more viable cells (100 = DMSO, 0 = benzethonium chloride kill control)
How it was run: (§1)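 Plates were normalised with 0.1 % DMSO as 100 and a positive kill control as 0. Breast cancer cell lines in 20 µl suspension had been seeded into 384-well plates with compound at 5 concentrations in 10-fold steps over a compound-specific 10,000-fold range, incubated 72 h, and read for CellTox Green fluorescence (485/520 nm) followed by CellTiter-Glo luminescence. Each value is the normalised signal at a single concentration.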

SK-BR-3 = test: as above
How it was run: as §1

HCC1937 [2] = test: as above
How it was run: as §1

CAL-85-1 [3] = test: as above
How it was run: as §1

MDA-MB-436 [4] = test: as above
How it was run: as §1

MDA-MB-231 [5] = test: as above
How it was run: as §1

Hs578T [6] = test: as above
How it was run: as §1

HCC1599 [7] = test: as above
How it was run: as §1

CAL-148 [8] = test: as above
How it was run: as §1

MDA-MB-453 [9] = test: as above
How it was run: as §1

HCC1143 [10] = test: as above
How it was run: as §1

MDA-MB-468 [11] = test: as above
How it was run: as §1

HDQ-P1 [12] = test: as above
How it was run: as §1

MCF-10A [13] = test: as above
How it was run: as §1

MFM-223 [14] = test: as above
How it was run: as §1

CAL-51 [15] = test: as above
How it was run: as §1

DU-4475 [16] = test: as above
How it was run: as §1

CAL-120 [17] = test: as above
How it was run: as §1

BT-549 [18] = test: as above
How it was run: as §1

BT-474 [19] = test: normalised response (% of control), CellTox Green; higher = less cell death (100 = DMSO, 0 = benzethonium chloride kill control)
How it was run: as §1

HCC1937 [20] = test: as above
How it was run: as §1

CAL-85-1 [21] = test: as above
How it was run: as §1

MDA-MB-436 [22] = test: as above
How it was run: as §1

MDA-MB-231 [23] = test: as above
How it was run: as §1

Hs578T [24] = test: as above
How it was run: as §1

HCC1599 [25] = test: as above
How it was run: as §1

CAL-148 [26] = test: as above
How it was run: as §1

MDA-MB-453 [27] = test: as above
How it was run: as §1

HCC1143 [28] = test: as above
How it was run: as §1

MDA-MB-468 [29] = test: as above
How it was run: as §1

HDQ-P1 [30] = test: as above
How it was run: as §1

MCF-10A [31] = test: as above
How it was run: as §1

MFM-223 [32] = test: as above
How it was run: as §1

CAL-51 [33] = test: as above
How it was run: as §1

DU-4475 [34] = test: as above
How it was run: as §1

CAL-120 [35] = test: as above
How it was run: as §1

BT-549 [36] = test: as above
How it was run: as §1

Structure (SMILES)	normalised response (BT-474 [1]) [%]	normalised response (SK-BR-3) [%]	normalised response (HCC1937 [2]) [%]	normalised response (CAL-85-1 [3]) [%]	normalised response (MDA-MB-436 [4]) [%]	normalised response (MDA-MB-231 [5]) [%]	normalised response (Hs578T [6]) [%]	normalised response (HCC1599 [7]) [%]	normalised response (CAL-148 [8]) [%]	normalised response (MDA-MB-453 [9]) [%]	normalised response (HCC1143 [10]) [%]	normalised response (MDA-MB-468 [11]) [%]	normalised response (HDQ-P1 [12]) [%]	normalised response (MCF-10A [13]) [%]	normalised response (MFM-223 [14]) [%]	normalised response (CAL-51 [15]) [%]	normalised response (DU-4475 [16]) [%]	normalised response (CAL-120 [17]) [%]	normalised response (BT-549 [18]) [%]	normalised response (BT-474 [19]) [%]	normalised response (HCC1937 [20]) [%]	normalised response (CAL-85-1 [21]) [%]	normalised response (MDA-MB-436 [22]) [%]	normalised response (MDA-MB-231 [23]) [%]	normalised response (Hs578T [24]) [%]	normalised response (HCC1599 [25]) [%]	normalised response (CAL-148 [26]) [%]	normalised response (MDA-MB-453 [27]) [%]	normalised response (HCC1143 [28]) [%]	normalised response (MDA-MB-468 [29]) [%]	normalised response (HDQ-P1 [30]) [%]	normalised response (MCF-10A [31]) [%]	normalised response (MFM-223 [32]) [%]	normalised response (CAL-51 [33]) [%]	normalised response (DU-4475 [34]) [%]	normalised response (CAL-120 [35]) [%]	normalised response (BT-549 [36]) [%]
CCn1c(C(=O)N(C2CC2)C2CC2)cc2c3c(ncn3C)c(Nc3cc(C)n(C)n3)nc21 (1000 nM)	92.7	101	101	99.5	105	92.5	95.8	124	96.6	92.7	103	85.4	98.8	99.9	95.2	70.1	97.2	96.4	98.2	98.8	120	102	98.2	102	93	89.3	87.1	104	106	95.6	96.2	117	98.5	98.2	103	96.2	94.2
CCN(CC)CCCC(C)Nc1ccnc2cc(Cl)ccc12 (stereo unspecified) [Chloroquine] (10000 nM)	72.1	35.2	65.7	57.7	77.3	73.9	97.4	65.3	60.2	28.8	89.6	57.4	86.2	74.2	62.9	51.7	80.1	50.6	73.3	35.4	91.5	93	59.4	50.4	94.3	86.2	35.5	62.1	110	119	81.6	95.2	67.7	91.5	96.2	-30.1	93.2
O=C(O)CNC(=O)c1c(O)c2ccccc2n(Cc2ccccc2)c1=O [IOX-2] (5000 nM)	95.7	99.7	93.3	96.9	96.7	91.3	100	114	100	93.1	103	106	100	104	97.7	85.1	99.3	101	96.2	100	114	104	93.2	66.4	58.2	98.2	98.5	110	97.1	57.3	105	84.6	–	94.9	103	98.4	72.8
CN(C)C(=N)NC(=N)N [Metformin] (10000 nM)	91	77.8	99.5	102	101	93.5	98.9	108	98.3	80.3	93.6	92.7	97.2	87.7	92.4	75.2	79.5	106	98.4	95	66.8	98	55.5	90.4	83.7	82.2	97.9	80.9	72.2	79.5	101	103	99.2	66.7	89.4	88.3	76.2
CN(Cc1cnc2nc(N)nc(N)c2n1)c1ccc(C(=O)N[C@@H](CCC(=O)O)C(=O)O)cc1 [Methotrexate] (5000 nM)	78.1	115	31.3	51.4	81.5	77.5	110	97.9	100	110	83.5	99.4	51.3	107	104	56.8	102	21.1	97.8	102	110	102	97.6	116	102	98.8	100	107	109	129	107	107	97.5	115	102	98.9	125
C=CCN(/C=C1/C(=O)O[C@H](COC)[C@@]2(C)C1=C(O)C(=O)C1=C2[C@H](OC(C)=O)C[C@]2(C)C(=O)CC[C@@H]12)CC=C [Sonolisib] (1000 nM)	106	105	99.8	105	112	103	99.2	110	109	105	102	102	101	97.6	107	77.5	99	102	97.4	95.1	–	97	103	111	89.7	115	109	109	82.6	112	98.1	66.6	104	104	104	102	112
O=[N+]([O-])c1ccc2c(c1)S(=O)(=O)C=C2 [Stattic] (5000 nM)	68.9	80.9	22.3	1.59	75.7	30.9	29.6	86.9	46.4	45	93.1	2.23	92.2	105	22.8	0.16	101	88.3	0.47	12.7	28.6	-36.1	106	51.2	-141	95.2	51.2	108	118	-175	106	–	4.35	-12.3	104	105	-67.2
